Results published in the Deep4Chem optical property database.

Experiment: photoluminescence quantum yield (fraction); solvent given as SMILES

With COc1c2ccccc2c(OC)c2c(C#Cc3ccccc3)c3cc4sccc4cc3c(C#Cc3ccccc3)c12 the photoluminescence quantum yield (in C1CCOC1) was 0.13, the photoluminescence quantum yield (in Cc1ccccc1) was 0.1 and the photoluminescence quantum yield (in ClCCl) was 0.11.
For O=[N+]([O-])c1ccc(O)c(-c2nc3c(c4c2-c2ccccc2CC4)-c2ccccc2CC3)c1, the photoluminescence quantum yield (in ClCCl) was 0.2.
CCCN1/C(=C\c2c(-c3ccc(N(C)C)cc3)c(=O)c2=O)C=Cc2ccccc21 gave a photoluminescence quantum yield (in C1CCCCC1) of 0.0262, a photoluminescence quantum yield (in Cc1ccccc1) of 0.0201 and a photoluminescence quantum yield (in ClCCl) of 0.001.
Compound CCCCCCc1cc2/c(=C(\C#N)C(=O)OC)s/c(=c3/s/c(=C(/C#N)C(=O)OC)c4cc(CCCCCC)sc34)c2s1 has a photoluminescence quantum yield (in Cc1ccccc1) of 0.086.
In the case of C1=Cc2ccc(N(c3ccccc3)c3cccc4ccccc34)cc2C2(c3cc(N(c4ccccc4)c4cccc5ccccc45)ccc31)c1ccccc1-c1ccccc12, the photoluminescence quantum yield (in ClCCl) was 0.58.
For Cc1ccc2oc(-c3cc4cc(C)ccc4oc3=O)cc2c1, the photoluminescence quantum yield (in CS(C)=O) was 0.83.
CCCCCCCCCCCCN1C(=O)c2c(c3ccc4cc(-c5ccc(F)cc5)c(OC)cc4c3c3c2ccc2cc(-c4ccc(F)cc4)c(OC)cc23)C1=O gave a photoluminescence quantum yield (in ClCCl) of 0.153.
For CC[N+](CC)=c1ccc2nc3c(cc(NCCC(=O)NC(C)C(=O)OC)c4ccccc43)oc-2c1 (stereo not given), the photoluminescence quantum yield (in CCO) was 0.18 and the photoluminescence quantum yield (in O) was 0.13.
Compound O=C1c2cccc3cc4ccccc4c(c23)C(=O)N1Cc1ccccn1 has a photoluminescence quantum yield (in C1CCOC1) of 0.83, a photoluminescence quantum yield (in CCCCCC) of 0.61 and a photoluminescence quantum yield (in CCO) of 0.91. It also gave a photoluminescence quantum yield (in Cc1ccccc1) of 0.69 and a photoluminescence quantum yield (in ClCCl) of 0.93.
For Cc1cccc(-c2cccc(C)c2)c1, the photoluminescence quantum yield (in C1CCCCC1) was 0.28.
With c1ccc(-[c+]2c3ccccc3oc3ccccc32)cc1 the photoluminescence quantum yield (in CC#N) was 0.47.
In the case of O=c1cc(C(F)(F)F)c2cc3c4c(c2o1)CCCN4CCC3, the photoluminescence quantum yield (in CCC#N) was 0.76, the photoluminescence quantum yield (in CCCCCCCl) was 0.95 and the photoluminescence quantum yield (in CCCCl) was 0.77. For the same compound, the photoluminescence quantum yield (in CCO) was 0.62 and the photoluminescence quantum yield (in OCC(F)(F)F) was 0.47.
N#Cc1ccc(-c2ccc(C3=CCCCC3)s2)s1 showed a photoluminescence quantum yield (in CCO) of 0.06.
For Cn1nc(-c2ccccc2)c2n[nH]nc2c1=O, the photoluminescence quantum yield (in CC#N) was 0.34, the photoluminescence quantum yield (in CCO) was 0.21 and the photoluminescence quantum yield (in Cc1ccccc1) was 0.23.
With Oc1ccc2ccccc2c1/C=N/C1CCCCC1/N=C/c1c(O)ccc2ccccc12 (stereo not given) the photoluminescence quantum yield (in CC#N) was 0.078.
For CCOC(=O)/N=c1/oc2ccc(OC)cc2cc1C#N, the photoluminescence quantum yield (in ClCCl) was 0.047.
With Cn1nc(-c2ccccc2)c2n[nH]nc2/c1=N\c1ccccn1 the photoluminescence quantum yield (in CC#N) was 0.05, the photoluminescence quantum yield (in CCO) was 0.06 and the photoluminescence quantum yield (in Cc1ccccc1) was 0.07.
For Nc1nc2ccccc2[n+]([O-])n1, the photoluminescence quantum yield (in CC#N) was 0.169 and the photoluminescence quantum yield (in O) was 0.0367.
Compound CCCCn1c(-c2ccc(-c3nnc(-c4ccccc4)o3)cc2)nc2c3ccccc3c3ccccc3c21 has a photoluminescence quantum yield (in ClCCl) of 0.61.
With CCCCC1(CCCC)c2cc(C#Cc3ccc4ccc5cccc6ccc3c4c56)ccc2-c2ccc(N(c3ccccc3)c3ccccc3)cc21 the photoluminescence quantum yield (in Cc1ccccc1) was 0.72.
In the case of c1ccc(-c2nc(-c3ccccc3)nc(-c3ccc(-n4c5ccccc5c5cc6c(cc54)C4c5ccccc5C6c5ccccc54)cc3)n2)cc1, the photoluminescence quantum yield (in Cc1ccccc1) was 0.77 and the photoluminescence quantum yield (in O=P(c1ccccc1)(c1ccccc1)c1ccccc1Oc1ccccc1P(=O)(c1ccccc1)c1ccccc1) was 0.4.
